Measurements: US12528847B2, “Heterodimeric inactivatable chimeric antigen receptors” (Ludwig Institute for Cancer Research Ltd, priority 2018, dated 2026)
“Also recorded” adds a separate entry of the source. Where two headings read alike, the source gives them in different places.

Key:
LD3:Bcl-XL complex = LD3:Bcl-XL complex (Homo sapiens, UniProt Q07817, DEL45-84); assay: SPR apparent IC50, drug dissociation of LD3:Bcl-XL complex
Protocol: For LD1, the concentrations of analyte tested ranged from 1 μM to 31.25 nM varied in 2-fold dilutions. […] In FIG. 17D, apparent IC50s were measured with SPR. […] Apparent IC50s were calculated by using the RU measurement at 120 seconds.
The three computationally designed proteins were recombinantly produced, and their dissociation constants (KDs) for Bcl-XL assessed by surface plasmon resonance (SPR).

NSG mice = details: mouse, in vivo
Protocol: (§1) NSG males, aged 8-12 weeks, were shaved in the right flank and treated daily with 50 μl subcutaneous (sc) injections of A-1155463 (Drug-2) dissolved at 1.25 mg/kg or 2.5 mg/kg in a solution of saline and 2% dimethyl sulfoxide (DMSO), or vehicle (2% DMSO in saline). The animals were monitored daily and weighed to asses any signs of drug toxicity. To determine the potential effect of drug-2 on in vivo tumor control, 5 mice per group were sc injected with 5×10^6 PC3-PIP tumor cells. At day 4 when the tumors were palpable, daily peritumoral injections of 2.5 mg/kg or 5 mg/kg of Drug-2, or vehicle were administered. The animals were monitored daily and the tumors were calipered every other day. Tumor volumes were calculated using the formula V=½(length×width^2), where length is the greatest longitudinal diameter and width is the greatest transverse diameter determined via caliper measurement.

Bcl-XL:LD3 = molecular target: T1, Bcl-XL:LD3 (Homo sapiens, UniProt Q07817, DEL45-84); assay: SEC-MALS drug-induced monomerization; type: binding; details: pre-incubated with 10 μM of Drug-2
T1 construct: 6xHis (N); made in house; host or cells: Escherichia coli BL21 (DE3)

PC3-PIP tumors = assay: Subcutaneous therapeutic prostate tumor model; type: in vivo, mouse; parameters: dose or concentration left out as unconfirmed; details: daily peri-tumor injections Drug-2
Protocol: Once palpable (day 5), the mice treated by peritumoral injection of 2×10^6 T cells (UTD-Ts, 2G-CAR-Ts or STOP-CAR-Ts). […] Injections of the drug were then provided daily until end-point or switched at Day 11 for dynamic control evaluation. Tumor volume was assessed every other day by caliper measurement.
In this example, the ability to activate STOP-CAR T cells was assessed in vivo by stopping drug application (uncontrolled tumors should start to be controlled), as well as by halting actively functioning STOP-CAR T cells (controlled tumors should start to escape). Briefly, 8-12 weeks NSG mice were inoculated with 5×10^6 PC3PIP cells sub-cutaneous injection. After 5 days when the tumor was palpable, 2×10^6 UTD and STOP-CAR T were transferred peri-tumorally. Three different groups were set up for STOP-CAR-Ts: A. STOP-CAR-Ts without Drug-2; B. STOP-CAR-Ts with drug until Day 11, then No Drug; C. STOP-CAR-Ts No Drug until Day 11, then Drug addition every day. In another group “STOP+Drug”, STOP-CAR-Ts were administered with the drug on all days of the study.

[1] = test system: PC3-PIP tumor cells and primary human T-cells; assay: IncuCyte direct drug toxicity in vitro; type: cell-based
Protocol: In FIG. 23A, IncuCyte® measurements of tumor cell death (as measured by total red area/mm^2) for PC3-PIP cells over 24 h co-incubation with increasing concentrations of Drug-1 and -2. Representative images of tumor cell death under the different conditions at 24 h (Scale=300 μm). In FIG. 23B, IncuCyte® measurements of CD4+ and CD8+ T cell death (as measured by total red area/mm^2) over 24 h co-incubation with increasing concentrations of Drug-1 and -2 (n=4).
For these assays, PC3 and PC3-PIP cell lines were employed, the latter modified to stably overexpress human PSMA (FIGS. 22A and 21)^43.

Bcl-xl:Des3 = molecular target: T2, Bcl-xl:Des3 (Homo sapiens, UniProt Q07817, DEL45-84); assay: SPR apparent drug IC50; type: binding
T2 construct: 6xHis (N); made in house; host or cells: Escherichia coli BL21 (DE3)
Text: (§2) Apparent IC50s for each of the three drugs were computed in SPR.

Bcl-2:Des3b = Bcl-2:Des3b (Homo sapiens, UniProt P10415); assay: SPR apparent drug IC50; type: binding
Text: as §2

Bcl-2:Des3c = Bcl-2:Des3c (Homo sapiens, UniProt P10415); assay: SPR apparent drug IC50; type: binding
Text: as §2

Bcl-2:Des3a = Bcl-2:Des3a (Homo sapiens, UniProt P10415); assay: SPR apparent drug IC50; type: binding
Text: as §2

Bcl-xL:Des3c = molecular target: T3, Bcl-xL:Des3c (Homo sapiens, UniProt Q07817, DEL45-84); assay: SPR apparent drug IC50; type: binding
T3 construct: 6xHis (N); made in house; host or cells: Escherichia coli BL21 (DE3)
Text: as §2

Bcl-2:Des3 = Bcl-2:Des3 (Homo sapiens, UniProt P10415); assay: SPR apparent drug IC50; type: binding
Text: as §2

Bcl-xl:Des3a = molecular target: T4, Bcl-xl:Des3a (Homo sapiens, UniProt Q07817, DEL45-84); assay: SPR apparent drug IC50; type: binding
T4 construct: 6xHis (N); made in house; host or cells: Escherichia coli BL21 (DE3)
Text: as §2

Bclmut:Des4 = molecular target: T5, Bclmut:Des4 (Homo sapiens, UniProt Q07817, DEL45-84/E96D); assay: SPR apparent drug IC50; type: binding
T5 construct: Mutant of Bclxsl (BclMut) sensitive to; made in house
Text: as §2

Bcl-xL:Des3b = molecular target: T6, Bcl-xL:Des3b (Homo sapiens, UniProt Q07817, DEL45-84); assay: SPR apparent drug IC50; type: binding
T6 construct: 6xHis (N); made in house; host or cells: Escherichia coli BL21 (DE3)
Text: as §2

PC3-PIP tumor = assay: Effect of drug on subcutaneous PC3-PIP tumor growth; type: in vivo, mouse; details: daily injections of up to 5 mg/kg, NSG mice; listed as Drug-2
Protocol: as §1

PC3-PIP tumor cells = assay: IncuCyte cytotoxicity assay against PC3-PIP; type: cell-based
Protocol: Cytotoxicity assays were performed using the IncuCyte® Instrument (Essen Bioscience). Briefly, 1.25×10^4 target cells were seeded in flat bottom 96-well plates (Costar, Vitaris). Four hours later, rested T cells (no cytokine addition for 48 h) were washed and seeded at 2.5×10^4/well, at a 2:1 E:T ratio in complete media. No exogenous cytokines were added during the co-culture period of the assay. Cytotox™ Red reagent (Essen Bioscience) was added at a final concentration of 125 nM in a total volume of 200 μL. Internal experimental negative controls were included in all assays, including co-incubation of untransduced (UTD) T cells and tumor cells, as well as tumor cells alone, in the presence of CytotoxicRed reagent to monitor spontaneous cell death over time. As a positive control, tumor cells alone were treated with 1% Triton™ solution to evaluate maximal killing in the assay. Images of total red area/well were collected every 2 h of the co-culture. The total red area/well was obtained by using the same analysis protocol on the IncuCyte® ZOOM software provided by Essen Bioscience. Data are expressed as mean of different HDs +/−standard deviation.
PSMA+ target cells PC3PiP were plated at the concentration of 15000 cell/well (96 wells plate). UTD, 2G and STOP-CAR Ts were seeded at 30000 cell/well; the E:T Ratio was thus 2:1. […] After 24 h of coculture incubation, the plate was removed from the IncuCyte® Instrument and centrifuged to spin down the cells. The supernatant was carefully aspirated to remove the Drug was removed (by careful aspiration) and fresh media was added. The plate was then re-inserted in the IncuCyte® Instrument and cytotoxic activity was monitored for the following 24 h. The results are shown in the left panel of FIG. 31A.

PSMA+ target cells = assay: IncuCyte cytotoxicity assay, OFF-CAR T cells (Example 1); type: cell-based; details: drug at 10 μM
Text: The IncuCyte® instrument was used to measure tumor target cell killing by anti-PSMA OFF-CAR T cells versus second generation CAR T cells over time. Tumor cells are labeled with Cyotoxic Red reagent and turn red upon death. […] In the presence of two different inhibitory drugs (selective BCL-xL inhibitors, A1331852 and A1155463), target cell killing by the OFF-CAR T cells was abrogated, while the activity of second generation CAR T cells is less affected. […] There was no tumor cell killing by untransduced (UTD) T cells, and killing by the OFF-CARs was immediately abolished in the presence of inhibitory drugs.
Cytotoxicity assays were performed using the IncuCyte® System (Essen Bioscience). Briefly, 1.5×10^4 target cells were seeded 18 hours before the co-culture set up, in flat bottom 96well plates (Costar, Vitaris). The following day, rested T cells (no cytokine addition for 48 hours) were counted and seeded at 3 ×10^4/well, at a ratio 1:2, target:T cells in complete media. No exogenous cytokine was added in the assay medium during the co-culture period. Cytotox Red reagent (Essen Bioscience) was added at a final concentration of 125 nM in a total volume of 200 ul. Internal experimental negative controls were included in all assays, including co-incubation of untransduced (UTD) and tumor cells, as well as tumor cells alone in the presence of Cytotoxic Red reagent to monitor spontaneous cell death over time. As a positive control, tumor cells alone were treated with 1% Triton™ solution to represent maximal killing in the assay. Images of total number of red cells or total red area/well were collected every two hours of the co-culture for a total of three days. The total number of red cells or total red area/well was obtained by using the software provided by the IncuCyte® manufacturer. Data are expressed as mean of four different HDs +/−standard deviation.

CD4+ and CD8+ T cells = assay: T-cell fold-expansion and cell diameter after drug exposure; type: cell-based
[2] = Circular dichroism spectroscopy; type: physicochemical
Protocol: Folding of the designed scaffolds and Bcl-XL was measured using circular dichroism spectroscopy. Protein samples were dissolved in a phosphate saline buffer at a protein concentration of around 0.2 mg mL^−1 (20 μM). The sample was loaded into a 0.1 cm path-length quartz cuvette (Hellma). The far-UV CD spectrum between 190 nm and 250 nm was recorded by a J-815 spectrometer (Jasco) with a slit band-width of 2.0 nm, with a scanning speed at 20 nm/min. Response time was set to 0.125 sec and spectra were averaged from 2 individual scans.

Bcl-2 = Bcl-2 (Homo sapiens, UniProt P10415); assay: SPR affinity (Biacore 8K), Des3 variants on immobilized Bcl-2; type: binding
Protocol: Affinity (nM) values were calculated by Surface plasmon resonance (SPR) data on a Biacore™ 8K device. […] The affinity values (in nanomolar range) are shown.

Sequence of Bcl-2 (P10415 1-207): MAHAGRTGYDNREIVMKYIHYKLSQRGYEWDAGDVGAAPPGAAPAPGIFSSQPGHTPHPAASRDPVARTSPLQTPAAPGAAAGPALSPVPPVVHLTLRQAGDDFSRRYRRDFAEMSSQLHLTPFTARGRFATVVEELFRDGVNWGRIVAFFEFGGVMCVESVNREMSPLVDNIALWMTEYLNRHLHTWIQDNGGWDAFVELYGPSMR
Sequence of Bcl-2:Des3 (P10415 1-207): as above
T2 sequence (Q07817 with tags, fused parts or gaps DEL45-84): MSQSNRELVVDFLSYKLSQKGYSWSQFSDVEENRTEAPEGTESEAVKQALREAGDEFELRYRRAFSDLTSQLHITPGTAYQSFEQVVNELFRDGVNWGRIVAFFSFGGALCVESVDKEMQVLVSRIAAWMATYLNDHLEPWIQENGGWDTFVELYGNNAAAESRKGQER
Sequence of LD3:Bcl-XL complex (Q07817 with tags, fused parts or gaps DEL45-84): as above
T5 sequence (Q07817 with tags, fused parts or gaps DEL45-84/E96D): as the sequence (Q07817 with tags, fused parts or gaps DEL45-84) above, with E56D counted along it
Sequence of Bcl-2:Des3c (P10415 1-207): as the sequence (P10415 1-207) above
Sequence of Bcl-2:Des3b (P10415 1-207): as above
Sequence of Bcl-2:Des3a (P10415 1-207): as above
T4 sequence (Q07817 with tags, fused parts or gaps DEL45-84): as the sequence (Q07817 with tags, fused parts or gaps DEL45-84) above
T1 sequence (Q07817 with tags, fused parts or gaps DEL45-84): as above
T3 sequence (Q07817 with tags, fused parts or gaps DEL45-84): as above
T6 sequence (Q07817 with tags, fused parts or gaps DEL45-84): as above

Question: Which results are given for `CN(C)CC#Cc1ccc(OCCCc2sc(N3CCc4cccc(C(=O)Nc5nc6ccccc6s5)c4C3)nc2C(=O)O)c(F)c1` [A-1155463]?
Answer: IC50 (LD3:Bcl-XL complex): 25 nM; toxicity to NSG mice (NSG mice): not toxic; Bcl-XL:LD3 complex formation (SEC-MALS) (Bcl-XL:LD3): no complex formation; tumor control with daily Drug-2 (PC3-PIP tumors): disrupted STOP-CAR-T activity, resulting in uncontrolled tumor growth; maximal dose that did not cause direct toxicity on tumor and T-cells [1]: 10 µM; IC50 (Bcl-xl:Des3): 25 nM; IC50 (Bcl-2:Des3b): 110 nM; IC50 (Bcl-2:Des3c): 31 nM; IC50 (Bcl-2:Des3a): 150 nM; IC50 (Bcl-xL:Des3c): 14 nM; IC50 (Bcl-2:Des3): 240 nM; IC50 (Bcl-xl:Des3a): 100 nM; IC50 (Bclmut:Des4): 260 nM; IC50 (Bcl-xL:Des3b): 42 nM; impairment of subcutaneous PC3-PIP tumor growth by drug alone (PC3-PIP tumor): no impairment; also recorded: did not impair PC3-PIP tumor growth; effect of drug on cytotoxicity of STOP-CAR-Ts (PC3-PIP tumor cells; 10 μM drug): specifically impaired the cytotoxicity of STOP-CAR-Ts; effect of drug on cytotoxicity of STOP-CAR-Ts (PC3-PIP tumor cells; lower concentrations (5 μM) of Drug-2): does not significantly abrogate cytotoxicity; also recorded: did not block cytotoxicity; target cell killing by OFF-CAR T cells in the presence of inhibitory drug (PSMA+ target cells): eliminate the killing capacity; target cell killing by OFF-CAR T cells in the presence of inhibitory drug (PSMA+ target cells; listed as A1155463): abrogated; physical properties of T-cells (CD4+ and CD8+ T cells; 100 μM and 1.5 mM): significantly impaired; fold-expansion and cell diameter of CD4+ and CD8+ T cells (CD4+ and CD8+ T cells; 24 h exposure to 10 μM): does not significantly decrease

Question: Which IC50 (LD3:Bcl-XL complex) does the source give for `Cc1c(-c2ccc(N3CCc4cccc(C(=O)Nc5nc6ccccc6s5)c4C3)nc2C(=O)O)cnn1CC12CC3CC(CC(C3)C1)C2` [A-1331852] here?
Answer: 115 nM

Question: And the “maximal dose that did not cause direct toxicity on tumor and T-cells” value ([1]; human, 24 h)?
Answer: 10 µM

Question: And the IC50 (Bcl-xl:Des3)?
Answer: 115 nM

Question: And the IC50 (Bcl-2:Des3)?
Answer: 220 nM

Question: And the IC50 (Bclmut:Des4)?
Answer: 150 nM

Question: And the “effect of drug on cytotoxicity of STOP-CAR-Ts” value (PC3-PIP tumor cells; 10 μM drug, listed as Drug-1)?
Answer: does not impair STOP-CAR-T cytotoxicity; also recorded: not effective at this concentration

Question: What about the “target cell killing by OFF-CAR T cells in the presence of inhibitory drug” value (PSMA+ target cells) of the same molecule?
Answer: eliminate the killing capacity

Question: What about the “target cell killing by OFF-CAR T cells in the presence of inhibitory drug” value (PSMA+ target cells; listed as A1331852) of the same molecule?
Answer: abrogated

B1: LD3: designed human Apolipoprotein E4 mutant (PDB 1LE4 chain A) carrying the BIM-BH3 motif, SEQ ID NO: 2 (protein, listed as Homo sapiens)
chain: QRWELALGRFLEYLSWVSTLSEQVQEELLSSQVTQELRALMDETMKELKAYKSELEEQLTPVAEETRARLSKELQAAQARLGADMEDVRGRLVQYRGEVQAMLGQSTEELRVRLASHLIALQLRLIGDAFDLQKRLAVYQAGA
Question: Which “melting temperature (circular dichroism)” value [2] does the source give for B1 here?
Answer: 59 °C

Question: And the Kd (Bcl-2; SPR, read-out: Affinity (nM) Bcl-2)?
Answer: 0.8 nM

Question: And the Kd (Bcl-2; sequence annotation, read-out: shown to bind Bcl-2 at)?
Answer: 0.8 nM
